Article PMC8271538, “Chemical Modulation of the 1-(Piperidin-4-yl)-1,3-dihydro-2H-benzo[d]imidazole-2-one Scaffold as a Novel NLRP3 Inhibitor” (Molecules, 2021)
“And” between values parts separate entries of the source, which are not always exact repeats. Equal entries are not always repeated. Where two headings read alike, the source gives them in different places. Marks after values point to notes of the source that are not given here.

Tests used:
human recombinant NLRP3 = biological target: T1, human recombinant NLRP3 (Homo sapiens, UniProt Q96P20); assay: In vitro NLRP3 ATPase activity, on-bead ADP-Glo assay with immobilised NLRP3-GFP; assay type: biochemical; details: for Inhibition of NLRP3 ATPase activity (% reduction in ATP hydrolysis relative to vehicle control) / inhibition at 100 µM: 100 μM compound, ATP 800 μM, mean ± SEM, n = 4; for NLRP3 ATPase inhibition at 1 mM compared with 100 µM: 1 mM vs 100 µM compound, data not shown; for inhibition at 100 µM: read-out: Inhibition of NLRP3 ATPase activity (% reduction in ATP hydrolysis relative to vehicle control)
T1 construct: made in house; host or cells: HEK293T cells (transient transfection, captured from lysate on GFP-Trap Sepharose)

[1] = test system: NLRP3-dependent pyroptosis in differentiated THP-1 cells; assay: NLRP3-dependent pyroptosis (LDH release) in PMA-differentiated, LPS-primed, ATP-triggered THP-1 cells; assay type: cell-based, human; details: for inhibition at 10 µM: THP-1, 1.5 h, read-out: Pyroptosis Decrease, % inhibition at 10 µM
[2] = test system: IL-1β release in differentiated THP-1 cells; assay: IL-1β release (ELISA) in supernatants of LPS/ATP-treated differentiated THP-1 cells; assay type: cell-based, human; details: same experiments as pyroptosis, vs vehicle-treated cells, mean ± SEM; for IL-1β Inhibition, % inhibition at 10 µM: 10 µM test compound; for inhibition at 10 µM: Homo sapiens, THP-1, 10 µM test compound
Description: Different techniques could be used to study NLRP3 inhibitors; the use of differentiated THP-1 cells treated with NLRP3 activating stimuli is suitable for the screening of large series of compounds [48]. All the synthesised compounds (Figure 2) were evaluated for their NLRP3 inhibitory activity by measuring their ability to prevent NLRP3-dependent pyroptosis in differentiated THP-1 cells. THP-1 cells were differentiated into macrophages by treatment with phorbol-myristate acetate (PMA; 50 nM; 24 h) and then treated with lipopolysaccharide (LPS; 10 µg/mL; 4 h) to promote NLRP3 expression. The cells were then incubated with test compounds at the fixed concentration of 10 µM for 1 h. Test compounds were dissolved in serum free medium containing 0.1% DMSO as the vehicle. NLRP3 was activated by the addition of ATP (5 mM), and the pyroptotic cell death was evaluated after 1.5 h by measuring the lactate dehydrogenase (LDH) released in the cell supernatants. The obtained results, expressed as pyroptosis% decrease with respect to vehicle-treated cells, are collected in Table 1. In the same experiments, the release of IL-1β was measured via an ELISA assay and the results, expressed as % inhibition of IL-1β release versus vehicle-treated cells, are reported in Table 1. Finally, the cytotoxicity of the synthesised compounds was evaluated by MTT assay after treatment of THP-1 cells with increasing concentration of test compounds (0.1–100 µM) for 72 h. […] The structural modulation of compound 2 was then carried out in order to understand whether it was possible to restore/increase the activity without the re-introduction of a Michael acceptor substructure.
Human myelomonocytic THP-1 cells were cultured in RPMI 1640 medium (Aurogene, Rome, Italy) supplemented with fetal bovine serum (10%; Aurogene), L-glutamine (2 mM; Aurogene), penicillin (100 IU/mL; Aurogene) and streptomycin ([…]; Aurogene). Cell culture medium was replaced every 2−3 days, and the cultures were maintained at 37 °C and 5% CO2 in a fully humidified incubator. The day before each experiment, cells were plated in 48-well culture plates (90.000 cells/well) and were differentiated by treatment with PMA (50 nM, 24 h; Sigma-Aldrich). PMA-differentiated THP-1 cells were washed twice with phosphate-buffered saline (PBS) and primed with LPS (10 μg/mL, 4 h; Sigma-Aldrich) in serum-free medium. Cells were then incubated with compounds dissolved in medium containing 0.1% DMSO for 1 h and cell death was triggered with ATP (5 mM, 90 min; Sigma-Aldrich). MCC950 (Sigma-Aldrich batch #45216 and batch #85021 and from Crysdot (product n. CD31002496; OS05876-18070932) was used in the experiments.
IL-1β release was quantified in differentiated THP-1 supernatant, obtained as previously described, using Human IL-1 beta Uncoated ELISA kit (Invitrogen, Waltham, MA, USA), according to the manufacture’s instruction.

[3] = 10 µM test compound, 1 h before ATP (5 mM, 90 min), vs vehicle-treated cells, mean ± SEM, NA = not active at 10 µM
[4] = Homo sapiens, 10 µM test compound, 1 h before ATP (5 mM, 90 min), vs vehicle-treated cells, mean ± SEM, NA = not active at 10 µM
[5] = 72 h treatment, 0.1–100 µM, MTT, TC50 ± SEM of three experiments

T1 sequence (Q96P20 whole entry): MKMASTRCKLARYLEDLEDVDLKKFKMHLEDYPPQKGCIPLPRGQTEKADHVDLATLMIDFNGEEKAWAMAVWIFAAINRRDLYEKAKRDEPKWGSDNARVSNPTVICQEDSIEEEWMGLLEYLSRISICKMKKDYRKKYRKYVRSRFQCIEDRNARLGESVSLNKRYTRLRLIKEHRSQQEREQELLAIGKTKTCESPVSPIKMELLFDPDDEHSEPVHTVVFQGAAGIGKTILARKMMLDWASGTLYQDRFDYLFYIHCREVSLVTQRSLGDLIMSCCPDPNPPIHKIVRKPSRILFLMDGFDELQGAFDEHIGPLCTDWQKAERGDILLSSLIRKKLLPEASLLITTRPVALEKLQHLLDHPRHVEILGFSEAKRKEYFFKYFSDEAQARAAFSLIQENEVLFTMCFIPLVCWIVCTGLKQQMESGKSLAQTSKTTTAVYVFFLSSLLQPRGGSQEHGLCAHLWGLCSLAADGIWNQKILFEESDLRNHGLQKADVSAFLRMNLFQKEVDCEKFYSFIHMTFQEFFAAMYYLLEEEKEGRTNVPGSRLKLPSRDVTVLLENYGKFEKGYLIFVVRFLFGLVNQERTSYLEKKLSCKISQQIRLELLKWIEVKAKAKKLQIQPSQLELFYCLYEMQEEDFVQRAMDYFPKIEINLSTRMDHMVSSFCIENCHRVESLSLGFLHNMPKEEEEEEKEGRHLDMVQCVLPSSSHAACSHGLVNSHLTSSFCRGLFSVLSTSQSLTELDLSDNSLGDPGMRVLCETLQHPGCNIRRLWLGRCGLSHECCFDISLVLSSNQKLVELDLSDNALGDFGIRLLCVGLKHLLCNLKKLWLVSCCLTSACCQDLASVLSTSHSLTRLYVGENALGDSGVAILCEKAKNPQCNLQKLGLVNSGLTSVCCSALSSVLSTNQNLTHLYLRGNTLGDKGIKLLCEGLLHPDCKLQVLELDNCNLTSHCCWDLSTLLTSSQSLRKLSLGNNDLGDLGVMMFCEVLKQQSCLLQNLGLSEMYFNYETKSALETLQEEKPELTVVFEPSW

1-(1-(2-(2-chlorophenyl)acetyl)piperidin-4-yl)-1,3-dihydro-2H-benzo[d]imidazol-2-one [Compound 4]
Inhibition of NLRP3 ATPase activity (% reduction in ATP hydrolysis relative to vehicle control) (human recombinant NLRP3): reduce | Pyroptosis Decrease, % inhibition at 10 µM [1]: inactive | Cytotoxicity TC50 (THP-1 cells): 80.9 ± 3.2 µM

2-(3-(3-(2-chlorophenyl)propanoyl)-2-oxo-2,3-dihydro-1H-benzo[d]- imidazol-1-yl)propionic acid [Compound 21]
Inhibition of NLRP3 ATPase activity (% reduction in ATP hydrolysis relative to vehicle control) (human recombinant NLRP3): reduced the inhibitory potential | Pyroptosis Decrease, % inhibition at 10 µM [1, 3]: the activity was suppressed | Cytotoxicity TC50 (THP-1 cells): 80.1 ± 1.4 µM

3-(2-chlorophenyl)-N-(2-oxo-2-(4-(2-oxo-2,3-dihydro-1H-benzo[d]imidazol-1-yl)piperidin-1-yl)ethyl)propenamide [Compound 6]
Inhibition of NLRP3 ATPase activity (% reduction in ATP hydrolysis relative to vehicle control) (human recombinant NLRP3): 22.5 ± 1.4% | NLRP3 ATPase inhibition at 1 mM compared with 100 µM (human recombinant NLRP3): no significant differences | Pyroptosis Decrease, % inhibition at 10 µM [1, 3]: about 35% | Pyroptosis Decrease, % inhibition at 10 µM ([1]; 10 µM test compound, 1 h before ATP (5 mM, 90 min), vs vehicle-treated cells, mean ± SEM, NA = not active at 10 µM, listed as 6 (INF148)): 35.0 ± 6.9 ^d % | IL-1β Inhibition, % inhibition at 10 µM ([2]; 10 µM): 18–21% | IL-1β Inhibition, % inhibition at 10 µM ([2]; listed as 6 (INF148), 10 µM): 21.0 ± 3.2 ^d % | Cytotoxicity TC50 (THP-1 cells): 61.7 ± 1.0 µM

3-(2-chlorophenyl)-N-(4-oxo-4-(4-(2-oxo-2,3-dihydro-1H-benzo[d]imidazol-1-yl)piperidin-1-yl)butyl)propenamide [Compound 8]
Pyroptosis Decrease, % inhibition at 10 µM [1, 3]: 32.2 ± 10.6 ^d % | Cytotoxicity TC50 (THP-1 cells): 86.3 ± 5.1 µM

3-(2-chlorophenyl)-N-methyl-N-(3-(2-oxo-2,3-dihydro-1H-benzo[d]imidazole-1-yl)propyl)propenamide [Compound 11]
Pyroptosis Decrease, % inhibition at 10 µM [1]: inactive

C=C(Cc1ccccc1Cl)C(=O)N1CCC(n2c(=O)[nH]c3ccccc32)CC1 [Compound 1, 1-(1-(2-(2-chlorobenzyl)acryloyl)piperidin-4-yl)-1,3-dihydro-2H-benzo[d]imidazol-2-one]
inhibition at 100 µM (human recombinant NLRP3): 28.4 ± 2.6% | inhibition at 10 µM [1, 4]: 24.9 ± 6.3% | IL-1β Inhibition, % inhibition at 10 µM ([2]; 10 µM): 14.4 ± 5.0% | inhibition at 10 µM [2]: 19.4 ± 0.4% | Cytotoxicity TC50 (THP-1 cells; [5]): 32.9 ± 19 µM and 32.9 ± 19.0 µM

O=C(CCc1ccccc1Cl)N1CCC(n2c(=O)[nH]c3ccccc32)CC1 [Compound 2, 1-(1-(3-(2-chlorophenyl)propanoyl)piperidin-4-yl)-1,3-dihydro-2H-benzo[d]imidazol-2-one]
inhibition at 100 µM (human recombinant NLRP3): 28.6 ± 5.5% | inhibition at 50 µM ([1]; Homo sapiens, THP-1, 50 µM test compound): 29.1 ± 4.8% | inhibition at 10 µM [1, 4]: 14.9 ± 5.8% | inhibition at 10 µM [2]: 10.3 ± 5.8% | Cytotoxicity TC50 (THP-1 cells; [5]): 64.1 ± 4.7 µM

O=C(CCc1ccccc1Cl)NCCC(=O)N1CCC(n2c(=O)[nH]c3ccccc32)CC1 [Compound 7, 3-(2-chlorophenyl)-N-{3-oxo-3-[4-(2-oxo-2,3-dihydro-1,3-benzodiazol-1-yl)piperidin-1-yl]propyl}propanamide]
inhibition at 10 µM [1, 4]: ~35% | IL-1β Inhibition, % inhibition at 10 µM ([2]; 10 µM): 17.8 ± 7.5% | inhibition at 10 µM [2]: 18 to 21% | Cytotoxicity TC50 (THP-1 cells; [5]): 62.4 ± 13.3 µM

O=C(CCc1ccccc1Cl)NCCn1c(=O)[nH]c2ccccc21 [Compound 9, 3-(2-chlorophenyl)-N-(2-(2-oxo-2,3-dihydro-1H-benzo[d]imidazol-1-yl)ethyl) propanamide]
Inhibition of NLRP3 ATPase activity (% reduction in ATP hydrolysis relative to vehicle control) (human recombinant NLRP3): restored the ATPase inhibition | inhibition at 100 µM (human recombinant NLRP3): 18.3 ± 3.2% | NLRP3 ATPase inhibition at 1 mM compared with 100 µM (human recombinant NLRP3): no significant differences | inhibition at 1 µM ([1]; Homo sapiens, THP-1, 1 µM test compound (Figure 3)): 20 to 30% | inhibition at 10 µM [1, 4]: 39.2 ± 6.6% | inhibition at 10 µM [2]: 20.3 ± 1.3% | Cytotoxicity TC50 (THP-1 cells; [5]): 87.1 ± 1.9 µM

O=C(CCc1ccccc1Cl)NCCCn1c(=O)[nH]c2ccccc21 [Compound 10, 3-(2-chlorophenyl)-N-(3-(2-oxo-2,3-dihydro-1H-benzo[d]imidazol-1-yl)propyl) propanamide]
Inhibition of NLRP3 ATPase activity (% reduction in ATP hydrolysis relative to vehicle control) (human recombinant NLRP3): no effect on ATPase inhibition was detected | Pyroptosis Decrease, % inhibition at 10 µM [1, 3]: inactive | Cytotoxicity TC50 (THP-1 cells; [5]): >100 µM

CNC(=NC#N)NC1CCN(C(=O)CCc2ccccc2Cl)CC1 [Compound 12, 1-(1-(3-(2-chlorophenyl)propanoyl)piperidin-4-yl)-2-cyano-3-methylguanidine]
inhibition at 10 µM [1, 4]: 15.7 ± 9.1% | inhibition at 10 µM [2]: 19 ± 0.4% | Cytotoxicity TC50 (THP-1 cells; [5]): >100 µM

O=C(CCc1ccccc1Cl)N1CCC(n2cnc3ccccc32)CC1 [Compound 14, 1-(4-(1H-benzo[d]imidazol-1-yl)piperidin-1-yl)-3-(2-chlorophenyl)propan-1-one]
Pyroptosis Decrease, % inhibition at 10 µM [1, 3]: inactive | Cytotoxicity TC50 (THP-1 cells; [5]): 92.6 ± 4.0 µM

N#CN=c1[nH]c2ccccc2n1C1CCN(C(=O)CCc2ccccc2Cl)CC1 [Compound 15, N-(1-(1-(3-(2-chlorophenyl)propanoyl)piperidin-4-yl)-1,3-dihydro-2H-benzo[d]imidazol-2-ylidene)cyanamide]
Inhibition of NLRP3 ATPase activity (% reduction in ATP hydrolysis relative to vehicle control) (human recombinant NLRP3): significant inhibition of ATPase activity | Pyroptosis Decrease, % inhibition at 10 µM [1, 3]: inactive | Cytotoxicity TC50 (THP-1 cells; [5]): 83.4 ± 0.8 µM

O=C(CCc1ccccc1Cl)n1c(=O)[nH]c2ccccc21 [Compound 16, 1-(3-(2-chlorophenyl)propanoyl)-1,3-dihydro-2H-benzo[d]imidazol-2-one]
inhibition at 10 µM [1, 4]: 37.7 ± 7.6% | inhibition at 10 µM [2]: 14.9 ± 8.8% | Cytotoxicity TC50 (THP-1 cells; [5]): 77.3 ± 3.7 µM

CCOC(=O)Cn1c(=O)n(CCc2ccccc2Cl)c2ccccc21 [Compound 22, Ethyl 2-(3-(2-chlorophenethyl)-2-oxo-2,3-dihydro-1H-benzo[d]imidazol-1-yl) acetate]
Cytotoxicity TC50 (THP-1 cells; [5]): 92.8 ± 2.1 µM

O=C(O)Cn1c(=O)n(CCc2ccccc2Cl)c2ccccc21 [Compound 23, 2-(3-(2-chlorophenethyl)-2-oxo-2,3-dihydro-1H-benzo[d]imidazol-1-yl)acetic acid]
inhibition at 10 µM [1, 4]: 26.3 ± 3.5% | inhibition at 10 µM [2]: 13.9 ± 16.4% | Cytotoxicity TC50 (THP-1 cells; [5]): 62.4 ± 1.2 µM

CC(C)(O)c1coc(S(=O)(=O)NC(=O)Nc2c3c(cc4c2CCC4)CCC3)c1 [MCC950, reference compound]
inhibition at 10 µM [2]: 37.6 ± 6% | Cytotoxicity TC50 (THP-1 cells; [5]): >100 µM

Ethyl 2-(3-(3-(2-chlorophenyl)propanoyl)-2-oxo-2,3-dihydro-1H-benzo[d] imidazol-1-yl)propanoate [Compound 20]
Pyroptosis Decrease, % inhibition at 10 µM [1, 3]: 24.4 ± 6.8% | IL-1β Inhibition, % inhibition at 10 µM [2]: 13.8 ± 5.4% | Cytotoxicity TC50 (THP-1 cells): 57.6 ± 3.2 µM
